Test results: patent US20180110777A1, “METHOD FOR REGULATION OF TELOMERE LENGTH” (The Johns Hopkins University, priority 2015, published 2018)

Columns and labels:
[1] = system: SL13 cells; experiment: Telomere Southern blot after lentiviral overexpression of mTR and mTERT; format: cell-based, mouse; settings: SL13 cells transduced with lentivirus expressing mTR and mTERT; day 6
[2] = system: human HCT116; experiment: Bulk telomere length, Southern blot, HCT116; format: cell-based; settings: HCT116 cells
[3] = system: ATR kinase substrate Chk1; experiment: Western blot of ATR kinase substrate Chk1 phosphorylation; format: cell-based, mouse; settings: cells pretreated, then exposed to camptothecin (CPT)
From the text: To probe the role of ATM, the ADDIT assay was used in cells treated with the ATM specific inhibitor KU55933 (as described in Hickson et al., 2004, Cancer Research 64, 9152-9159) or with siRNA to ATM. To confirm the inhibition of ATM, the phosphorylation level was examined of the ATM substrate Kap1 and, as a control, an ATR kinase substrate Chk1 by western blot. Cultured cells were pretreated with KU55933, siA™ or DMSO control and then exposed to camptothecin (CPT), a DNA damaging agent.
To detect phospho-proteins, 1× lysis buffer made of final concentration of 1×RIPA™ (Cell Signaling, #98016S), 1× protease inhibitor cocktail, 1× PhosSTOP™ (Roche, 4906845001) was added directly to cells on the dish after washing with PBS. Protein concentration was measured with a BCA protein assay kit (Thermo, #23227). Typically 10 μg of protein from each sample was applied to SDS-PAGE gels (Biorad, #456-1084) and transferred to nitrocellulose membranes in transfer buffer. […] Band intensities were quantified using the Odyssey™ software (LI-COR) and normalized to Actin levels. […]

[4] = system: HT1080 cells; experiment: Bulk telomere length, Southern blot, HT1080; format: cell-based, human
[5] = system: PARP1-4; settings: in vitro assays; cited from earlier work
[6] = system: PARP1; experiment: Western blot of PARylation with antibody against poly ADP-ribose; format: cell-based; settings: antibody directed against poly ADP-ribose
Description: To examine activation of ATM kinase pathway in response to PARP1 inhibition the phosphorylation levels of KAP1, in response to the PARP1 inhibitor, Olaparib was measured.
To detect phospho-proteins, 1× lysis buffer made of final concentration of 1×RIPA™ (Cell Signaling, #98016S), 1× protease inhibitor cocktail, 1× PhosSTOP™ (Roche, 4906845001) was added directly to cells on the dish after washing with PBS. Protein concentration was measured with a BCA protein assay kit (Thermo, #23227). Typically 10 μg of protein from each sample was applied to SDS-PAGE gels (Biorad, #456-1084) and transferred to nitrocellulose membranes in transfer buffer. After blocking with the Odyssey™ blocking buffer (LI-COR, #927-40000), membranes were incubated at 4° C. overnight or 1 hr at RT with the following primary antibodies: anti-phospho-Kap1 (Bethyl Lab, #A300-767A); anti-phospho-CHK1 (Cell Signaling, #2348S); anti-phospho-ATM (Millipore, #05-740); anti-HA (Santa Cruz, #sc-7392); anti-Actin (Santa Cruz, #sc-1616); anti-PAR (Trevigen, #4335-MC-100). The following day, blots are washed with 1×PBS− T for 3×15 minutes, and then incubated with secondary antibodies conjugated to near-infrared dyes (IRDye® 680 anti-goat, 800 anti-rabbit, 800 anti-mouse, LI-COR). […] Band intensities were quantified using the Odyssey™ software (LI-COR) and normalized to Actin levels. […]

SMILES | telomere elongation on overexpression of telomerase (Southern blot) [1] | bulk telomere length [2] | Chk1-S345 phosphorylation [3] | bulk telomere length [4] | specificity to PARP1-4 [5] | PARylation [6]
O=c1cc(-c2cccc3c2Sc2ccccc2S3)oc(N2CCOCC2)c1 [KU55933] | blocked this telomere elongation | telomere shortening | not Chk1 phosphorylation | shortens bulk telomeres |  | 
O=C(c1cc(Cc2n[nH]c(=O)c3ccccc23)ccc1F)N1CCN(C(=O)C2CC2)CC1 [Olaparib] |  |  |  |  | highly specific to PARP1-4 | inhibited PARylation
